Data from patent US9072734B2, “Quaternary ammonium salt compounds” (Teijin Pharma Limited, priority 2009, dated 2015).
pIC50: −log10 of the molar value. Counter-ions that a name gives are not always drawn.

Target: T1, human M3 muscarinic receptor (Homo sapiens, UniProt P20309)
T1 construct: expressed in transfected cells; host or cells: CHO-K1
Assay: Inhibitory effect on methacholine-induced calcium influx, FLIPR assay, CHO-K1 cells stably expressing the human M3 muscarinic receptor
Format: cell-based
Details: inhibition of calcium influx induced by methacholine
Method in brief: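 Dye-loaded hM3 CHO-K1 cells were preincubated 180 s with compound solutions prepared at 10 two-fold concentrations (0.01–1000 nM). A 30 nM methacholine solution was then added. Fluorescence was traced for 170 s; max−min signal gave % inhibition against agonist and no-agonist controls, and IC50 came from a four-parameter logistic fit.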

T1 sequence (P20309 whole entry): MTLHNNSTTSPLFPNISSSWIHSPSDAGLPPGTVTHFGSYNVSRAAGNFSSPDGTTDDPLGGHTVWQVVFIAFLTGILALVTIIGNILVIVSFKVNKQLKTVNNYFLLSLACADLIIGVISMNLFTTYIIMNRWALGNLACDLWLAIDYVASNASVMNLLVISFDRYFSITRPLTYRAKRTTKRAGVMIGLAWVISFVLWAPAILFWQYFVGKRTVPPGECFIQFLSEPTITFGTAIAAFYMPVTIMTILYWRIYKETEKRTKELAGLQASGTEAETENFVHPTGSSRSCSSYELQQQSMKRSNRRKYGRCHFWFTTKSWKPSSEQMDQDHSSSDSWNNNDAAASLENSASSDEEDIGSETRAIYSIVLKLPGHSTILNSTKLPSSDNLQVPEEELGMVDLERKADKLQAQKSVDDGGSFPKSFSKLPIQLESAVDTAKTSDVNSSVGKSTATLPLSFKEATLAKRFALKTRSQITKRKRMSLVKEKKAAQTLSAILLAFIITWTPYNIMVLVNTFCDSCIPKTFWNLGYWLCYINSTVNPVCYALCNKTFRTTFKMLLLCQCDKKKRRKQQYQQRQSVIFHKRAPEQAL

| Compound | pIC50 |
| --- | --- |
| C[N+]1(C)CCC(OC(=O)Nc2cc(CCC(=O)Nc3ccc(CNC[C@H](O)c4ccc(O)c5[nH]c(=O)ccc45)cc3)ccc2-c2ccccc2)CC1 [Example 1, 4-({[5-(2-{[4-({[(2R)-2-hydroxy-2-(8-hydroxy-2-oxo-1,2-dihydroquinolin-5-yl)ethyl]amino}methyl)phenyl]carbamoyl}ethyl)-2-phenylphenyl]carbamoyl}oxy)-1,1-dimethylpiperidin-1-ium trifluoroacetate] | 8.19 |
| COc1cc(NC(=O)CCCCc2ccc(-c3ccccc3)c(NC(=O)OC3CC[N+](C)(C)CC3)c2)c(Cl)cc1CNC[C@H](O)c1ccc(O)c2[nH]c(=O)ccc12 [Example 51, 4-({[5-(4-{[2-chloro-4-({[(2R)-2-hydroxy-2-(8-hydroxy-2-oxo-1,2-dihydroquinolin-5-yl)ethyl]amino}methyl)-5-methoxyphenyl]carbamoyl}butyl)-2-phenylphenyl]carbamoyl}oxy)-1,1-dimethylpiperidin-1-ium trifluoroacetate] | 7.88 |
